Key:
CAPAN-1 = experiment: Cell viability, CTG, CAPAN-1; type: cell-based; settings: CAPAN-1 (Pancreatic)
Description: (§1) To measure cell viability, cell titer glow (CTG, Promega CellTiter-Glo 2.0 Assay) and MTT assays (SigmaAldrich, Cell Proliferation Kit I) were performed. Briefly, cells were serum starved overnight prior to seeding in 96-well plates. Following 24 h incubation, cells were treated with increasing concentrations of JGJ compounds for 96 hr. At assay read-out, CellTiter-Glo reagent was added and luminescence was measured after 10-minutes incubation at room temperature. For the MTT assay, MTT labeling reagent was added and incubated for 4 h. Subsequently, medium was removed and 50 μL DMSO was added to solubilize the crystals, and absorbance was measured at 570 nm. Cell viability was calculated as (Sample-Background)/(Control-Background). Current standard of care drugs, Enzalutamide, Palbociclib and Cetuximab were used as comparative controls.

22RV1 = experiment: Cell viability, MTT assay, 22RV1; type: cell-based; settings: 22RV1 (Prostate), 96 hr
Description: as §1, with “(Sample-Background)/(Control-Background).” for “(Sample-Background)/(Control-Background). Current standard of care drugs, Enzalutamide, Palbociclib and Cetuximab were used as comparative controls.”

CYP 1A2 = biological target: T1, CYP 1A2 (Homo sapiens, UniProt P05177); experiment: CYP inhibition 1A2; type: in vitro ADME; parameters: unit not given here; settings: Conc. 30 uM
T1 sequence (P05177 1-516): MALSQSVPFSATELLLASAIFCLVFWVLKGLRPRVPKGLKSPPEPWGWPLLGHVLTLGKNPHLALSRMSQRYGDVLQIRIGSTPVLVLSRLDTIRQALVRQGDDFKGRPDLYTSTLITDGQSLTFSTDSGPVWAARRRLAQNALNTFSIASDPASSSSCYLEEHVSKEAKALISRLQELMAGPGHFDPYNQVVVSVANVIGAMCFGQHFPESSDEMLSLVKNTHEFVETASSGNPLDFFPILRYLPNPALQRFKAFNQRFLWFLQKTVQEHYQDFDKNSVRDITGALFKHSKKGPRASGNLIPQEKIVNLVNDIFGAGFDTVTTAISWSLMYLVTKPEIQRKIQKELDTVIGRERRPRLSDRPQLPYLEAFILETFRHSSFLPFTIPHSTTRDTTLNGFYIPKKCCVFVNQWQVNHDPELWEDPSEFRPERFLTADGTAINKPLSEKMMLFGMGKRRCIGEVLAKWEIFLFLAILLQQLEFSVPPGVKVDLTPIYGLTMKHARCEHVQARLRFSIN

BT-549 = experiment: Cell viability, CTG, BT-549; type: cell-based; settings: BT-549 (Breast)
Description: as §1

MCF7 = experiment: Cell viability, MTT assay, MCF7; type: cell-based; settings: MCF7 (Breast)
Description: as §1

SW480 [1] = experiment: Cell viability, MTT assay, SW480; type: cell-based; settings: SW480 (Colon)
Description: as §1

MDA-MB231 [2] = experiment: Cell viability, MTT assay, MDA-MB231; type: cell-based
Description: as §1

ASPC-1 = experiment: Cell viability, CTG, ASPC-1; type: cell-based
Description: as §1

[3] = Microsomal stability, CD-1 Mouse; type: in vitro ADME; settings: for CLint scaled at 30 uM / half-life at 30 uM: microsomes; for half-life at 30 uM: read-out: Microsomal stability T½
H1975 = experiment: Cell viability, MTT assay, H1975; type: cell-based
Description: as §1, with “(Sample-Background)/(Control-Background).” for “(Sample-Background)/(Control-Background). Current standard of care drugs, Enzalutamide, Palbociclib and Cetuximab were used as comparative controls.”

CYP 2C9 = CYP 2C9 (Homo sapiens, UniProt P11712); experiment: CYP inhibition 2C9; type: in vitro ADME; parameters: unit not given here; settings: Conc. 30 uM
Sequence of CYP 2C9 (P11712 whole entry): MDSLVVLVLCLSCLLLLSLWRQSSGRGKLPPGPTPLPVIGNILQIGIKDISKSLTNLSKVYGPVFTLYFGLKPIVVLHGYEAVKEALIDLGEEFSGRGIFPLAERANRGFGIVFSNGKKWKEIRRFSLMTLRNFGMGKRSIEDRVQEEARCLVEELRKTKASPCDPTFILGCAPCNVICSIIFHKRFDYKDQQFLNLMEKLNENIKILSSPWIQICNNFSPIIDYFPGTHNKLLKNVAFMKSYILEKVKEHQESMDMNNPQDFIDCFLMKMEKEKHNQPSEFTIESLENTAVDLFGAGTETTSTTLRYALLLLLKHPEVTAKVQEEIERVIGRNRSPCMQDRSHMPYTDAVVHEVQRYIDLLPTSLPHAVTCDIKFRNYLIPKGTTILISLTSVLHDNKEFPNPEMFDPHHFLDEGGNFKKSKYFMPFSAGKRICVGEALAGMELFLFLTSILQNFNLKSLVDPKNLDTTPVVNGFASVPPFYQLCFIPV

LNCaP = experiment: Cell viability, MTT assay, LNCaP; type: cell-based; settings: LNCaP (Prostate)
Description: as §1, with “(Sample-Background)/(Control-Background).” for “(Sample-Background)/(Control-Background). Current standard of care drugs, Enzalutamide, Palbociclib and Cetuximab were used as comparative controls.”

CYP 2C19 = CYP 2C19 (Homo sapiens, UniProt P33261); experiment: CYP inhibition 2C19; type: in vitro ADME; parameters: unit not given here; settings: Conc. 30 uM
Sequence of CYP 2C19 (P33261 whole entry): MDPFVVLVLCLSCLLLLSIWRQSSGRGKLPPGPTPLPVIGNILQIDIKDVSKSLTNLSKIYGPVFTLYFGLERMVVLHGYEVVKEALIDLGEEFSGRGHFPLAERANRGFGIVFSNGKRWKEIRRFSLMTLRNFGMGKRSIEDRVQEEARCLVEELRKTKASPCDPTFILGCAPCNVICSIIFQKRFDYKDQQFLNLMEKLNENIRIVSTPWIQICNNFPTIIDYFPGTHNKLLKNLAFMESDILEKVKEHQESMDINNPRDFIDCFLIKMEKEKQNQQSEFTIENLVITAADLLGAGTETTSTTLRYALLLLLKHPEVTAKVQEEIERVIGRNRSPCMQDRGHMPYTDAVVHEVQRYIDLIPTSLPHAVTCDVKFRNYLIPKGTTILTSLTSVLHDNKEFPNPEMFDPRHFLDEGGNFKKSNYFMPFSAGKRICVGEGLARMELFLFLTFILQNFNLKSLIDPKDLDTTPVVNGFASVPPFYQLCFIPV

HCT-116 = experiment: Cell viability, CTG, HCT-116; type: cell-based; settings: HCT-116 (Colon)
Description: as §1

CYP 2C8 = biological target: T2, CYP 2C8 (Homo sapiens, UniProt P10632); experiment: CYP inhibition 2C8; type: in vitro ADME; parameters: unit not given here; settings: Conc. 30 uM
T2 sequence (P10632 1-490): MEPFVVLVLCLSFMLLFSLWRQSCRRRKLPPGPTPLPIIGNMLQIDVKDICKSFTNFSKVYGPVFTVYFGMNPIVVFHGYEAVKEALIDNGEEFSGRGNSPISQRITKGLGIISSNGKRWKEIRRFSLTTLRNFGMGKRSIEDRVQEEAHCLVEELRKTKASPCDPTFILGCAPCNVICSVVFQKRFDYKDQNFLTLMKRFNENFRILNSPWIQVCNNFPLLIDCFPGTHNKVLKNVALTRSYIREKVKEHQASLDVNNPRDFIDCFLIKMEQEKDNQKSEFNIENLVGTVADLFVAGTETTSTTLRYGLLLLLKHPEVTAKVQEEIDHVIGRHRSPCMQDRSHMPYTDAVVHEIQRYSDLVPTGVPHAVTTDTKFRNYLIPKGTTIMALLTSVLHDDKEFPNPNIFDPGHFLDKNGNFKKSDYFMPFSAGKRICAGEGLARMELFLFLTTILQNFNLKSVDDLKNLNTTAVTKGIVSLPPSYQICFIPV

SW620 = experiment: Cell viability, MTT assay, SW620; type: cell-based
Description: as §1

H23 = experiment: Cell viability, MTT assay, H23; type: cell-based
Description: as §1

SW480 [4] = experiment: Cell viability, CTG, SW480; type: cell-based; settings: SW480 (Colon)
Description: as §1, with “(Sample-Background)/(Control-Background).” for “(Sample-Background)/(Control-Background). Current standard of care drugs, Enzalutamide, Palbociclib and Cetuximab were used as comparative controls.”

MDA-MB231 [5] = experiment: Cell viability, CTG, MDA-MB231; type: cell-based; settings: Homo sapiens, MDA-MB-231, MDA-MB231 (Breast)
Description: as §1

A549 = experiment: Cell viability, MTT assay, A549; type: cell-based; settings: A549 (Lung)
Description: as §1, with “(Sample-Background)/(Control-Background).” for “(Sample-Background)/(Control-Background). Current standard of care drugs, Enzalutamide, Palbociclib and Cetuximab were used as comparative controls.”

H460 = experiment: Cell viability, MTT assay, H460; type: cell-based
Description: as §1

[6] = Homo sapiens, MDA-MB-231, MDA-MB231 (Breast)
[7] = Homo sapiens, ASPC1, ASPC-1 (Pancreatic)
[8] = Homo sapiens, NCI-H1975, H1975 (Lung)
[9] = Homo sapiens, SW-620, SW620 (Colon)
[10] = Homo sapiens, NCI-H23, H23 (Lung)
[11] = Homo sapiens, NCI-H460, H460 (Lung)

SMILES | IC50 (CAPAN-1; Homo sapiens) [µM] | IC50 (22RV1; Homo sapiens) [µM] | CYP inhibition 1A2 (CYP 1A2) | IC50 (BT-549; Homo sapiens) [µM] | IC50 (MCF7; Homo sapiens) [µM] | IC50 (SW480 [1]; Homo sapiens) [µM] | IC50 (MDA-MB231 [2]; [6]) [µM] | IC50 (ASPC-1; [7]) [µM] | Microsomal stability % Remaining at T30 ([3]; Conc. 30 uM) | CLint scaled at 30 uM ([3]; Conc. 30 uM) [mL/min/kg] | half-life at 30 uM ([3]; Conc. 30 uM) [min] | IC50 (H1975; [8]) [µM] | CYP inhibition 2C9 (CYP 2C9) | IC50 (LNCaP; Homo sapiens) [µM] | CYP inhibition 2C19 (CYP 2C19) | IC50 (HCT-116; Homo sapiens) [µM] | CYP inhibition 2C8 (CYP 2C8) | IC50 (SW620; [9]) [µM] | IC50 (H23; [10]) [µM] | IC50 (SW480 [4]; Homo sapiens) [µM] | other results
Cc1cnc2ccc(-c3cccc(F)c3)nn12 [JGJ015, 6-(3-Fluorophenyl)-3-methylimidazo[1,2-b]pyridazine] | 137 | 209 | 96.4 | 48 | 59 | 53 | 145 | 157 | T30 = 2.3% | 988 | 5.52 | 51 | 14.27 | 83 | 49.8 | 148 | 17.82 | 62 | 62 | 110 | IC50 (MDA-MB231 [5]): 75 µM; IC50 (A549; Homo sapiens): 93 µM; IC50 (H460; [11]): 594 µM
CC(=O)Nc1cccc(-c2ccc3ncc(C)n3n2)c1 [JGJ007, N-(3-(3-Methylimidazo[1,2-b]pyridazin-6-yl)phenyl)acetamide] | 91 | 97 | 97.3 | 75 | 45 | 64 | 39 | 188 | T30 = 37.6% | 257 | 21.2 | 31 | 24.65 | 54 | 37.08 | 148 | 19.11 | 64 | 95 | 68 | IC50 (MDA-MB231 [5]): 43 µM; IC50 (A549; Homo sapiens): 97 µM; IC50 (H460; [11]): 512 µM
CC(=O)N(C)c1cccc(-c2ccc3nnc(C)n3n2)c1 [LN1632] |  |  |  |  |  |  |  |  |  |  |  |  |  |  |  |  |  |  |  |  | IC50 (CAPAN-1): 82 µM; IC50 (22RV1): 236 µM; IC50 (BT-549): 151 µM; IC50 (MCF7): 144 µM; IC50 (SW480 [1]): 155 µM; IC50 (MDA-MB231 [2]; MDA-MB231 (Breast)): 136 µM; IC50 (ASPC-1; ASPC-1 (Pancreatic)): 111 µM; Microsomal stability % Remaining at T30 ([3]; Conc. 100 uM): T30 = 90.2%; Microsomal stability CLint ([3]; Conc. 100 uM): kg) = 27 mL/min/kg; Microsomal stability T½ ([3]; Conc. 100 uM): T½ = 202 min; IC50 (H1975; H1975 (Lung)): 91 µM; IC50 (LNCaP): 110 µM; IC50 (HCT-116): 158 µM; IC50 (SW620; SW620 (Colon)): 161 µM; IC50 (H23; H23 (Lung)): 167 µM; IC50 (SW480 [4]): 168 µM; IC50 (A549): 151 µM; IC50 (H460; H460 (Lung)): 172 µM

Reference: patent US20230059009A1, “INHIBITORS OF LIN28 AND METHODS OF USE THEREOF” (The Regents of the University of California, priority 2019, published 2023)
